Results taken from patent publication US20060057732A1, “Methods in the diagnosis of pulmonary embolism” (Aerocrine AB, priority 2004, published 2006).

Assays:
NO-production = test: L-NAME pre-treatment (inhibited NO-production) before and during muscle emboli challenge in anaesthetised rabbits (Group 2); format: in vivo
Procedure: The experiments were approved by the local animal ethics committee. Male white New Zealand rabbits (n=20, body weight 2.456±0.086 kg) were anaesthetised via an ear vein with sodium pentobarbital, 6 mg ml^−1 in normal saline, 40-60 mg kg^−1. The animals were placed in supine position and tracheotomised just below the cricoid cartilage to allow mechanical ventilation using a tracheal cannula with an outer diameter of 5 mm. The animals were ventilated by a Harvard Apparatus rodent ventilator (model 683, Harvard Apparatus, South Natick, Mass., USA). The ventilator was supplied with NO-free air using a charcoal filter (110×11 cm). Ventilation rate was 40 min^−1 at constant volume where the tidal volume was initially adjusted to keep the end-tidal CO2 at 4.5-5.3% as determined by a ventilatory monitor (Oscar-Oxy, Datex, Helsinki, Finland) sampling gas (150 ml min^−1, 15-20% of minute ventilation) from one of two side-arms connected to the tracheal cannula, and using a de-humidifying tube. The minute ventilation was 0.64-0.96 l min^−1. To the other side arm a pressure transducer (Statham, Hato Rey, Puerto Rico) was connected thus monitoring the insufflation pressure. The gas from the ventilator outlet was led through a switching valve to either of two beakers creating a positive end-expiratory pressure (PEEP) of 1-2 cmH2O or 4-5 cmH2O. During the experiment the gas flow was altered between the lower PEEP (9 min) and the higher PEEP (1 min) with an interval of totally 10 min. A continuous infusion containing glucose (24.3 g l^−1), dextran 70 (26.5 g l^−1), NaHCO3 (6,2 g l^−1), sodium pentobarbital (4.1 g l^−1) and pancuronium bromide ([…]) was administrated at a rate of 5 ml kg^−1 h^−1 via the same ear vein by means of a Terumo STC-521 syringe pump (Terumo Corp., Tokyo, Japan). A heparinised catheter was inserted in the left common carotid artery for blood pressure and heart rate recordings (pressure transducer, Staham, Hato Rey, Puerto Rico), and arterial blood sampling. Another catheter was inserted in the right jugular vein for drug and muscle emboli administration. Body temperature was maintained at 37-38.5° C. by means of a heating pad connected to a thermostat. The muscles from the anterior compartment of the right lower hind limb were resected and placed in normal saline. Hereafter the animals were allowed a 30-60 min intervention-free period to obtain stable circulatory conditions and stable concentrations of expired NO.
NO concentration, in mixed exhaled gas, was continuously measured by means of a chemiluminescence based system (NIOX®, AEROCRINE AB, Solna, Sweden) sampling at 100 ml min^−1 at the end of a mixing chamber connected to the ventilator exhaust. The full mixing of expired air thus measured on was intermittently checked by monitor CO2 concentration in the same chamber. In a few experiments, gas for NO measurement was sampled from the trachea at the same point as for tidal CO2 measurements, thus yielding breath by breath NO concentrations. Calibration was done using certified NO standard gas in nitrogen (AGA Specialgas, Lidingö, Sweden).
The resected muscle tissue was cleared from all visible connective tissue and then homogenized and dissolved in normal saline to a concentration of 0,1 g muscle ml^−1. 50 IE heparin was added to the mixture. The homogenate was filtered through a filter (500 μm) to prevent clotting in the three way stop-cock.
The animals were divided into two groups; 1) one group receiving a high dose (58-120 mg kg^−1) muscle homogenate and 2) a second group receiving the nitric oxide inhibitor L-NAME (30 mg kg^−1) 40 min before challenge with lower doses (30 to 7.5 mg kg^−1) muscle homogenate, since initial pilot experiments indicated a marked enhancement of emboli effects after L-NAME pre-treatment. […]

[1] = Thrombin infusion as pro-thrombotic challenge; format: in vivo, rabbit; details: thrombin 10-250 Units; when cardiovascular parameters indicated a thrombotic event
Procedure: Another experiment was performed with infusion of thrombin (10-250 Units) as pro-thrombotic challenge. Also in this experiment, an increase in exhaled NO was obtained when measurement of cardiovascular parameters indicated an activation of a thrombotic event.

[2] = Group 2, during L-NAME pre-treatment, time -5 min, before challenge

Molecule	PaCO2 (NO-production; [2])	PaO2 (NO-production; [2])	pH (arterial) (NO-production; [2])	ETCO2 after L-NAME infusion (NO-production; L-NAME 30 mg kg-1, before muscle emboli challenge (time=-5), before L-NAME 4.9±0.1)	FENO after L-NAME infusion (NO-production; L-NAME 30 mg kg-1, before muscle emboli challenge (time=-5), before L-NAME 20.9±1.0 ppb, n=4)	MAP after L-NAME infusion (NO-production; L-NAME 30 mg kg-1, before muscle emboli challenge (time=-5), before L-NAME 105±6)	HR after L-NAME infusion (NO-production; L-NAME 30 mg kg-1, before muscle emboli challenge (time=-5), before L-NAME 286±11)	ETCO2, lowest observed value (NO-production; L-NAME 30 mg kg-1 pre-treatment + muscle emboli infusion, at 4 min, n=4 incl. dead animals)	MAP, first drop (NO-production; L-NAME 30 mg kg-1 pre-treatment + muscle emboli infusion, at 12 min)	MAP, lowest observed value (NO-production; L-NAME 30 mg kg-1 pre-treatment + muscle emboli infusion, at 60 min)	HR change (NO-production; L-NAME 30 mg kg-1 pre-treatment + muscle emboli infusion, not significant)	Survival after muscle emboli infusion (NO-production; L-NAME 30 mg kg-1 pre-treatment, 7.5 to 30 mg kg-1 homogenate, four rabbits)	exhaled NO change [1]
COC(=O)[C@@H](N)CCCNC(=N)N[N+](=O)[O-] [L-NAME, N^G-nitro-L-arginine methyl ester]	4.3 ± 0.2 kPa	8.6 ± 0.6 kPa	7.50 ± 0.02	4.8±0.2 kPa	0 ppb	121±8.2 cmH2O	314±34 beats min^-1	2.6±1.1 kPa	52.4±25.5 cmH2O	44.4±29.6 cmH2O	decreased	two animals survived 60 min	
thrombin													increase
